Results on nine compounds are retold here after PMC5844890 (Scientific Reports, 2018).

Where two headings read alike, the source gives them in different places.

The term IC50 denotes the concentration at which inhibition is half-maximal. The term melting point denotes the temperature, or range, at which the solid turns liquid.

Data set [1] has as its system HMEC-1 cells. Nature of the data set: Anti-proliferative activity, HMEC-1 microvascular endothelial cells (Coulter counting). The settings on record: Homo sapiens, HMEC-1, 96 h, read-out: Endothelial cells IC50 HMEC-1. The class given is cell-based. From the text: (§1) The anti-proliferative activity of the synthesized benzofurane derivatives was studied in three human cancer cell lines [breast carcinoma (MDA-MB-231), lymphoblastic leukemia (CEM) and cervical carcinoma (HeLa) cells] and one endothelial cell line [human microvascular endothelial cells (HMEC-1)].
(§2) The human microvascular endothelial cell line HMEC-1 was obtained at passage 12 from the Centers for Disease Control and Prevention (Atlanta, GA, USA) and used from passage 17 till 27. Human breast carcinoma (MDA-MB-231), human cervical carcinoma (HeLa) and human T-lymphoid (CEM) cells were obtained from ATCC (Middlesex, UK). Cell lines were maintained in culture for up to 3 months and grown in DMEM, supplemented with 10% FBS, 0.01 M Hepes and 1 mM sodium pyruvate. All cells were cultured in a humidified 5% CO2 incubator at 37 °C.
(§3) HMEC-1 cells were seeded in 48-well plates at 20,000 cells/well. After 24 h, 5-fold dilutions of the compounds were added. The cells were allowed to proliferate 4 days in the presence of the compounds, trypsinized, and counted by means of a Coulter counter (Analis, Belgium). HeLa and MDA-MB-231 cells were seeded in 48-well plates at 10,000 cells/well. After 24 h, different concentrations of the compounds were added. After 3 days of incubation, the cells were trypsinized and counted in a Coulter counter. Suspension cells (human lymphoid Cem cells) were seeded in 96-well plates at 60,000 cells/well in the presence of different concentrations of the compounds, allowed to proliferate for 96 h, and counted in a Coulter counter. The 50% inhibitory concentration (IC50) was defined as the compound concentration required to reduce cell proliferation by 50%.

The next data set has as its system CEM cells. The data set is described as follows: Anti-proliferative activity, CEM lymphoblastic leukemia cells (Coulter counting). The settings on record: Homo sapiens, CCRF-CEM, 96 h, read-out: Tumor cells IC50 CEM. It counts as cell-based.
Text: as §1, §2, §3

Data set [2] concerns MDA-MB-231 cells. Nature of the data set: Anti-proliferative activity, MDA-MB-231 breast carcinoma cells (Coulter counting). It counts as cell-based. The settings on record: Homo sapiens, MDA-MB-231, 72 h, read-out: Tumor cells IC50 MDA-MB-231.
Text: as §1, §2, §3

A further data set has as its system HeLa cells. The data set is described as follows: Anti-proliferative activity, HeLa cervical carcinoma cells (Coulter counting). The class given is cell-based. The settings on record: Homo sapiens, 72 h, read-out: Tumor cells IC50 HeLa.
Text: as §1, §2, §3

For data set [3], the system named is MDA-MB-231 cells. The data set is described as follows: Cell cycle analysis (propidium iodide, flow cytometry). The class given is cell-based, human. The conditions noted are these: 0.3 µM, 24 h treatment. The method, then: Tubulin-binding agents interfere with mitotic spindle formation during cell division. […] Thus, we investigated whether 27 and 28 affect the progression of human breast cancer MDA-MB-231 cells through the cell cycle. […] In contrast, compounds 27 and 28 arrested the cell cycle in the M phase (mitosis) at concentrations as low as 0.03 and 0.1 μM (for compound 27 and 28 respectively).
(§4) Figure 6 Mechanism of action of the benzofurane derivatives. (A) Inhibition of cell cycle progression. MDA-MB-231 cells were treated with DMSO (control) or compounds 8, 27 or 28 for 24 h. Next, the cells were harvested, stained with propidium iodide (PI), and cell cycle distribution was evaluated by flow cytometry. Percentages of cells in the different phases of the cell cycle are indicated. (B) Caspase-3 activity. MDA-MB-231 cells were seeded in 48-well plates at 40,000 cells/cm². After 24 h, different concentrations of compounds 8, 27 or 28 and 2 µM of the caspase-3 substrate DEVD-NucView488 were added. After 16 h, the cells were incubated with 2 µg/ml Hoechst 33342 to stain the nucleus, and imaged. (C) Disruption of the vascular network. HMEC-1 cells were cultured on matrigel for 3 h to allow the formation of tube-like structures. Next, different concentrations of compounds were added. Upper panel: After 90 min, pictures were taken and the tubular network was scored (3: intact network, 0: network completely destroyed). Bars show average ± SEM (n = 4). Lower panel: Microscopic pictures of the tubular network 3 h after addition of compound.
MDA-MB-231 cells were seeded in 6-well plates at 125,000 cells/well in DMEM with 10% FBS. After 24 h, the cells were exposed to different concentrations of the compounds. After 24 h, the DNA of the cells was stained with propidium iodide using the CycleTEST PLUS DNA Reagent Kit (BD Biosciences, San Jose, CA). The DNA content of the stained cells was assessed by flow cytometry on a FACSCalibur flow cytometer and analyzed with CellQuest software (BD Biosciences) within 3 h after staining. Cell debris and clumps were excluded from the analysis by appropriate dot plot gating. Percentages of sub-G1, G1, S, and G2/M cells were estimated using appropriate region markers.

The next data set relates to A2780 cells. The data set is described as follows: Anti-proliferative activity, A2780 ovarian carcinoma cells. The class given is cell-based, human. The settings on record: mean ± standard error of three independent experiments. From the text: (§5) One of the most relevant causes of tumor resistance to chemotherapy is the overexpression of membrane pumps which remove the chemotherapeutic agents from the treated cells.

The next data set relates to A2780AD cells. The data set is described as follows: Anti-proliferative activity, A2780AD (MDR overexpressing P-glycoprotein) ovarian carcinoma cells. The class given is cell-based, human. The conditions noted are these: P-glycoprotein overexpressing resistant line, mean ± standard error of three independent experiments, read-out: A2780 AD IC50.
Text: as §5

Data set [4] relates to HMEC-1 cells. The data set is described as follows: IncuCyte scratch wound migration assay with PI uptake. The class given is cell-based. The method, then: Proper tubulin organization is not only required for cell division but also for cell motility and migration. Therefore, we evaluated the capacity of the compounds to inhibit the migration of HMEC-1 endothelial cells. To this end, we used the 96-well IncuCyte® scratch wound assay. After the creation of a cell-free zone (wound) in a confluent cell monolayer, compounds were added, and relative wound density was measured every minute and visualized in time-course plots. PI was added to all wells to visualize toxicity over time, i.e. only dead cells take up this cell-impermeable dye.
Figure 7 Inhibition of HMEC-1 migration. The 96-well IncuCyte® scratch wound assay was used to create a cell-free zone (wound) in a confluent cell monolayer. Next, compounds were added and the relative wound density was measured every minute and visualized in time-course plots (left panels). PI is added to all wells to visualize toxicity over time, i.e. only dead cells take up this cell-impermeable dye (right panels). Average ± SEM (n = 3) are shown.
Wounds were created in confluent HMEC-1 cells by means of the “Incucyte® wound maker”. Next, different concentrations of compound and PI were added and images were taken every 2 min for the duration of the experiment. The algorithm masks each phase-contrast image to identify the position of the wounded (cell-free) and unwounded (cell-occupied) zones. Relative wound density is calculated and visualized in time-course plots.

Data set [5] concerns MDA-MB-231 cells. The data set is described as follows: Caspase-3 activity / apoptosis in live cells (fluorescence microscopy). It counts as cell-based, human. The conditions noted are these: 1 µM, after 24 h. The method, then: as §4
To confirm the capacity of compounds 27 and 28 to induce apoptosis, MDA-MB-231 cells were treated with the compounds for 24 h in the presence of NucView® 530 Caspase-3. This substrate is cleaved by active caspase-3 activity (the main executioner enzyme during apoptosis) to generate a fluorescent derivative that is analyzed using fluorescence microscopy.
MDA-MB-231 cells were seeded at 40,000 cells/cm². After 24 h, cells were incubated in Fluorobrite DMEM (Gibco), containing the compound and 2 µM of the caspase-3 substrate DEVD-NucView488 (Biotium, Hayward, CA). After 16 h, the DNA was stained with Hoechst33342 and the cells were imaged by fluorescence microscopy.

In data set [6] the test system is tumor and endothelial cells. Set-up: method as in PMID 24773591. The conditions noted are these: relative to prototypes 7 and 8; cited from earlier work.
Another data set has as its system αβ-tubulin. The settings on record: relative to prototypes 7 and 8; cited from earlier work.
The mark [7] stands for this setting: mean ± SD of three independent experiments, 4 days.
The mark [8] stands for this setting: mean ± SD of three independent experiments.
Setting [9] is: mean ± SD of three independent experiments, 3 days of incubation.

With `COc1ccc(/C=C\c2cc(OC)c(OC)c(OC)c2)cc1OP(=O)(O)O` [CA-4P, reference compound], the IC50 in the data set with HMEC-1 cells [1] amounted to 0.0029 ± 0.0001 µM; in the data set with CEM cells it was 0.011 ± 0.001 µM; in the data set on MDA-MB-231 cells [2] it was 0.0021 ± 0.0003 µM; with HeLa cells, 0.013 ± 0.001 µM.

Regarding `CCOc1ccccc1NC(C)=C1C(=O)CC(c2ccccc2)CC1=O` (stereo not drawn) [Compound 8], the cell cycle arrest result in the data set on MDA-MB-231 cells [3] is “no longer active”. Further, the IC50 with HMEC-1 cells [1] is 0.1 ± 0.02 µM; in the data set with CEM cells it was 0.19 ± 0.01 µM; in the data set with MDA-MB-231 cells [2], 0.068 ± 0.005 µM; with A2780 cells (Homo sapiens, A2780) it was 0.116 ± 0.008 µM; with A2780AD cells (Homo sapiens, A2780AD), 0.111 ± 0.016 µM; in the data set on HeLa cells, 0.18 µM. In addition, the “lowest concentration inhibiting wound closure” value in the data set on HMEC-1 cells [4] is reported as 0.5 µM. In addition, the “uptake of PI (toxicity)” value in the data set on HMEC-1 cells [4] (at the lowest concentration inhibiting wound closure (0.5, 0.06 and 0.06 µM)) was “No increased uptake of PI”. Besides, the “apoptotic rate (apoptotic cells, caspase-3 substrate)” value in the data set with MDA-MB-231 cells [5] is listed as 9%.

`CCC(Nc1ccccc1O)=C1C(=O)CC(c2ccccc2)CC1=O` (stereo not drawn) [Compound 9]: in data set [6], the “fold less active in antiproliferative assays” value was 100 fold. The “fold less active in tubulin binding” value with αβ-tubulin was 100 fold.

In the case of `CC(Nc1cccc2cc(C)oc12)=C1C(=O)CC(c2ccccc2)CC1=O` (stereo not drawn) [Compound 14, 2-(1-((2-Methylbenzofuran-7-yl)amino)ethylidene)-5-phenylcyclohexane-1,3-dione], the melting point lay within 127 to 129 °C. Besides, the IC50 in the data set on HMEC-1 cells [1] (setting [7]) was determined as 0.065 ± 0.003 µM. In the data set with CEM cells (setting [8]), the IC50 worked out at 0.038 ± 0.001 µM. In addition, the IC50 in the data set with MDA-MB-231 cells [2] (setting [9]) is 0.053 ± 0.006 µM. Further, in the data set with HeLa cells (setting [9]), the IC50 was 0.16 ± 0.01 µM.

For `COC(=O)c1cc2cccc(NC(C)=C3C(=O)CC(c4ccccc4)CC3=O)c2o1` (stereo not drawn) [Compound 20, Methyl 7-((1-(2,6-dioxo-4-phenylcyclohexylidene)ethyl)amino)benzofuran-2-carboxylate], the melting point was 178 to 180 °C. Besides, the half-inhibitory concentration (IC50) in the data set on HMEC-1 cells [1] (setting [7]) turned out to be 1.6 ± 0.6 µM. For the same compound, the IC50 with CEM cells (setting [8]) was 0.64 ± 0.36 µM. In addition, the IC50 with MDA-MB-231 cells [2] (setting [9]) is 0.17 ± 0.01 µM. This compound showed an IC50 with A2780 cells (Homo sapiens, A2780) of 0.44 ± 0.02 µM. Moreover, the IC50 with A2780AD cells (Homo sapiens, A2780AD) worked out at 0.66 ± 0.05 µM. Moreover, the IC50 in the data set with HeLa cells (setting [9]) was determined as 0.89 ± 0.03 µM.

Consider `CNC(=O)c1cc2cccc(NC(C)=C3C(=O)CC(c4ccccc4)CC3=O)c2o1` (stereo not drawn) [Compound 21, 7-((1-(2,6-Dioxo-4-phenylcyclohexylidene)ethyl)amino)-N-methylbenzofuran-2-carboxamide], for which the melting point fell in the range of 108 to 110 °C. Besides, the half-maximal inhibitory concentration (IC50) in the data set with HMEC-1 cells [1] (setting [7]) is 14 ± 11 µM. Also, the IC50 in the data set on CEM cells (setting [8]) turned out to be 5.5 ± 1.7 µM. In the data set with MDA-MB-231 cells [2] (setting [9]), the IC50 turned out to be 1.5 ± 0.6 µM. For the same compound, in the data set with HeLa cells (setting [9]), the IC50 is 12 ± 6 µM.

`CC(Nc1cccc2cc(CO)oc12)=C1C(=O)CC(c2ccccc2)CC1=O` (stereo not drawn) [Compound 22, 2-(1-((2-(Hydroxymethyl)benzofuran-7-yl)amino)ethylidene)-5-phenylcyclohexane-1,3-dione] gave a melting point of 120 to 122 °C. In the data set with HMEC-1 cells [1] (setting [7]), the IC50 came to 0.15 ± 0.05 µM. In the data set on CEM cells (setting [8]), the IC50 is 0.04 ± 0.002 µM. In the data set with MDA-MB-231 cells [2] (setting [9]), the IC50 came out at 0.015 ± 0.002 µM. For the same compound, the IC50 with HeLa cells (setting [9]) came out at 0.14 ± 0.04 µM.

Take `CC(=O)O[C@H]1C(=O)[C@@]2(C)[C@H]([C@H](OC(=O)c3ccccc3)[C@]3(O)C[C@H](OC(=O)[C@H](O)[C@@H](NC(=O)c4ccccc4)c4ccccc4)C(C)=C1C3(C)C)[C@]1(OC(C)=O)CO[C@@H]1C[C@@H]2O` [Paclitaxel, reference compound]: the IC50 in the data set on A2780 cells (Homo sapiens, A2780) is 0.001 ± 0.0001 µM; with A2780AD cells (Homo sapiens, A2780AD), 2.1 ± 0.3 µM.

On to `COc1cc([C@@H]2c3cc4c(cc3[C@H](O)[C@H]3COC(=O)[C@H]23)OCO4)cc(OC)c1OC` [Podophillotoxin, reference compound], for which the IC50 was determined as 0.064 ± 0.009 µM in the data set with A2780 cells and 0.074 ± 0.012 µM in the data set on A2780AD cells.
